Assay results published in patent US20080009418A1, “Selective Inhibitors” (Alchemia LTD., priority 2004, published 2008).

Columns and labels:
[1] = biological target: T1, Human neuropeptide Y (NPY-Y1) (Homo sapiens, UniProt P25929); assay: Radioligand binding, human neuropeptide Y NPY-Y1 membranes, FlashPlate, [125I]-PYY; details: compound at 10 μM; human NPY-Y1 membranes
T1 construct: purchased Perkin Elmer Biosignal
T1 sequence (P25929 1-384): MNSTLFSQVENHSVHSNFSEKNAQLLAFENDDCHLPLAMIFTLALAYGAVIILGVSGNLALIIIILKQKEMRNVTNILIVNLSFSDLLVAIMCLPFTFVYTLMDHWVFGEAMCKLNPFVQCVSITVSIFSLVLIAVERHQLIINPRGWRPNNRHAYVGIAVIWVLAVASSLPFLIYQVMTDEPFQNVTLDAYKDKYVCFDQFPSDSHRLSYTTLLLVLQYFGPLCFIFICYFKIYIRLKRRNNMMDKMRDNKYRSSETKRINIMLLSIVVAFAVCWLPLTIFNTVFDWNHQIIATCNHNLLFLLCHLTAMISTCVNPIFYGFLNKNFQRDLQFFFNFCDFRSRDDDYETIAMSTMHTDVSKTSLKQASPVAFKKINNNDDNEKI
Summary of the method: (§1)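 Cloned human receptor membranes were coated onto FlashPlate wells and incubated with radioligand and compound (added from a 0.5 mM DMSO daughter plate) for 1 hour at room temperature in the dark. Scintillation counting gave percent inhibition, with DMSO defining total and reference ligand defining non-specific binding.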

Human Melanocortin (MC3) = biological target: T2, Human Melanocortin (MC3) (Homo sapiens, UniProt P41968); assay: Radioligand binding, human melanocortin MC3 membranes, FlashPlate, [125I]-NDP-αMSH; details: compound at 10 μM; human melanocortin MC3 membranes
T2 construct: purchased Perkin Elmer Biosignal
T2 sequence (P41968 whole entry): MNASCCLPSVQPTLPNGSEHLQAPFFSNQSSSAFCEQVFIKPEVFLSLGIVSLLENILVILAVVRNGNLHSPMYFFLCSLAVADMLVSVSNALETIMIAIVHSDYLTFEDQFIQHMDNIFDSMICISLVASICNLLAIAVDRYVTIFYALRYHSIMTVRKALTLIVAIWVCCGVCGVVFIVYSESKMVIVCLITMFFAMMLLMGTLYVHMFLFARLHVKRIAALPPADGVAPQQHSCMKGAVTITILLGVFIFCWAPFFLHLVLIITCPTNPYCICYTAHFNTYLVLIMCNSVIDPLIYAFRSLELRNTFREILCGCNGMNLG
Summary of the method: as §1

Human κ-Opioid (KOP) = biological target: T3, Human κ-Opioid (KOP) (Homo sapiens, UniProt P41145); assay: Radioligand binding, human κ-opioid (KOP) membranes, filtration, [3H]-Diprenorphine; details: compound at 10 μM; human κ-opioid (KOP) membranes
T3 construct: purchased Perkin Elmer Biosignal
T3 sequence (P41145 whole entry): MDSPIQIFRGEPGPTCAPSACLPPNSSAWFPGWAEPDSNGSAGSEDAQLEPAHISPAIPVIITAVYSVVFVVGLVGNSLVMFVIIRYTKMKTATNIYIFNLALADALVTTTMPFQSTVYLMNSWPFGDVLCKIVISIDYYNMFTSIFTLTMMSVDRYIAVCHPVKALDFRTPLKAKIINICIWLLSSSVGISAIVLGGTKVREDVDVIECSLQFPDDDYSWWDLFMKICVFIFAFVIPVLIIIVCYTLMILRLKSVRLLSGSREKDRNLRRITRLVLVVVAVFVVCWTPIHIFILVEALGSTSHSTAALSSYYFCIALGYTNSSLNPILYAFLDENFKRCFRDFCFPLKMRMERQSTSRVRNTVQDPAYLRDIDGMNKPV
Summary of the method: (§2)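 Membranes from cloned human receptors were incubated with compound and radioligand for 1 hour at room temperature. Bound ligand was collected on 0.3% PEI-soaked filters, washed with cold 50 mM Tris-HCl pH 7.4, and counted by scintillation. Percent inhibition was computed against DMSO totals and reference-ligand nonspecific wells.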

Human δ-opioid (DOP) = biological target: T4, Human δ-opioid (DOP) (Homo sapiens, UniProt P41143); assay: Radioligand binding, human δ-opioid (DOP) membranes, FlashPlate, [3H]-Bremazocine; details: compound at 10 μM; human δ-opioid (DOP) membranes
T4 construct: purchased Perkin Elmer Biosignal
T4 sequence (P41143 whole entry): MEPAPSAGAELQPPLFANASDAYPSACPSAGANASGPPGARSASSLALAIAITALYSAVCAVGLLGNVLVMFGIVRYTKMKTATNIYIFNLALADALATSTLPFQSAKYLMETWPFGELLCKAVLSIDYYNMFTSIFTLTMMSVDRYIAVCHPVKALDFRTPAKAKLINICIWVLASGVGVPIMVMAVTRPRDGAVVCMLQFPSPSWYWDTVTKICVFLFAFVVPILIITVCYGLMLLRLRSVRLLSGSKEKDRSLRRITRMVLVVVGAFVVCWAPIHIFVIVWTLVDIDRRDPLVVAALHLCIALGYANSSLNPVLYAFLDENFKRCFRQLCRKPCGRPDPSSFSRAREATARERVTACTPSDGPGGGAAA
Summary of the method: as §1

[2] = biological target: T5, Human melanin-concentrating hormone (MCH1) (Homo sapiens, UniProt Q99705); assay: Radioligand binding, human melanin-concentrating hormone MCH1 membranes, FlashPlate, [125I]-S36057; details: compound at 10 μM; human MCH1 membranes
T5 construct: purchased Perkin Elmer Biosignal
T5 sequence (Q99705 whole entry): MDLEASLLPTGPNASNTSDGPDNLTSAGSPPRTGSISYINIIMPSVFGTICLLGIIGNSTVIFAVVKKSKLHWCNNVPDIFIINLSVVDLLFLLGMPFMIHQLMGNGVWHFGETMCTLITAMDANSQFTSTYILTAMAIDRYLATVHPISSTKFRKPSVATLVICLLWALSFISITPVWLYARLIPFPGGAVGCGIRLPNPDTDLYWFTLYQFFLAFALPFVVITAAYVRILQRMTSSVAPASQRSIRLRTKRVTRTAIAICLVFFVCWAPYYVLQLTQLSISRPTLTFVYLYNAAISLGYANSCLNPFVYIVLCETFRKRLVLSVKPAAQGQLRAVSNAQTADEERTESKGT
Summary of the method: as §1

Human melanocortin (MC5) = biological target: T6, Human melanocortin (MC5) (Homo sapiens, UniProt P33032); assay: Radioligand binding, human melanocortin MC5 membranes, FlashPlate, [125I]-NDP-αMSH; details: compound at 10 μM; human melanocortin MC5 membranes
T6 construct: purchased Perkin Elmer Biosignal
T6 sequence (P33032 whole entry): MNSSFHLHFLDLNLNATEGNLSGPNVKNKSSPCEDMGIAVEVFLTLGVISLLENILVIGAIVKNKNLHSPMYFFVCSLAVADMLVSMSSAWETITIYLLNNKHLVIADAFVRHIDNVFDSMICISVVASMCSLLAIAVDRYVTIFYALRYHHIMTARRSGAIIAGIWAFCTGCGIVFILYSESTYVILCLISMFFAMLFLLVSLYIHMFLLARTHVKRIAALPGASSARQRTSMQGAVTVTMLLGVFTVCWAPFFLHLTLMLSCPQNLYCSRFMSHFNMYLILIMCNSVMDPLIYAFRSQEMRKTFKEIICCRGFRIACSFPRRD
Summary of the method: as §1

Human neurokinin (NK1) = biological target: T7, Human neurokinin (NK1) (Homo sapiens, UniProt P25103); assay: Radioligand binding, human neurokinin NK1 membranes, filtration, [125I]-Substance P; details: compound at 10 μM; human neurokinin NK1 membranes
T7 construct: purchased Perkin Elmer Biosignal
T7 sequence (P25103 whole entry): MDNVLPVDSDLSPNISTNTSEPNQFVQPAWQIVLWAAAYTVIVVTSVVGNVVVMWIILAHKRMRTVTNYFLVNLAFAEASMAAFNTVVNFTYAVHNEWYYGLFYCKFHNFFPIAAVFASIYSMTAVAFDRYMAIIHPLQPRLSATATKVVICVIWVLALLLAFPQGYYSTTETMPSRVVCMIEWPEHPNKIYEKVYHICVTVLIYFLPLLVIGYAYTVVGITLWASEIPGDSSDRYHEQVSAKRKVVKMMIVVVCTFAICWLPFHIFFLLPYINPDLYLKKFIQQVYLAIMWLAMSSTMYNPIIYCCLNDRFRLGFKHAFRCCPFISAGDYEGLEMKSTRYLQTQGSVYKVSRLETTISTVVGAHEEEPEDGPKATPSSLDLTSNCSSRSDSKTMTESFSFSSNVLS
Summary of the method: as §2

Human opioid (ORL1) = biological target: T8, Human opioid (ORL1) (Homo sapiens, UniProt P41146); assay: Radioligand binding, human opioid ORL1 membranes, FlashPlate, [125I]-Nociceptin; details: compound at 10 μM; human ORL1 membranes
T8 construct: purchased Perkin Elmer Biosignal
T8 sequence (P41146 whole entry): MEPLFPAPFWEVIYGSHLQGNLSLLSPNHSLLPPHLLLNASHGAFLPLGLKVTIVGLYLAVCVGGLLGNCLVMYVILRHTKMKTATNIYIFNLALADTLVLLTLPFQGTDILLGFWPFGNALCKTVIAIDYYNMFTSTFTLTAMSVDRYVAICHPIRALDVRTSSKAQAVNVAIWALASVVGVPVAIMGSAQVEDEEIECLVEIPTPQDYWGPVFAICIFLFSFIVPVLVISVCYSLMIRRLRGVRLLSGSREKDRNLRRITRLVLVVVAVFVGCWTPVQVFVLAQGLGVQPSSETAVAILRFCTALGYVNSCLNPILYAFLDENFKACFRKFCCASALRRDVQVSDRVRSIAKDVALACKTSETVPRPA
Summary of the method: as §1

Human μ-opioid (MOP) = biological target: T9, Human μ-opioid (MOP) (Homo sapiens, UniProt P35372); assay: Radioligand binding, human μ-opioid (MOP) membranes, FlashPlate, [3H]-Naloxone; details: compound at 10 μM; human μ-opioid (MOP) membranes
T9 construct: purchased Perkin Elmer Biosignal
T9 sequence (P35372 whole entry): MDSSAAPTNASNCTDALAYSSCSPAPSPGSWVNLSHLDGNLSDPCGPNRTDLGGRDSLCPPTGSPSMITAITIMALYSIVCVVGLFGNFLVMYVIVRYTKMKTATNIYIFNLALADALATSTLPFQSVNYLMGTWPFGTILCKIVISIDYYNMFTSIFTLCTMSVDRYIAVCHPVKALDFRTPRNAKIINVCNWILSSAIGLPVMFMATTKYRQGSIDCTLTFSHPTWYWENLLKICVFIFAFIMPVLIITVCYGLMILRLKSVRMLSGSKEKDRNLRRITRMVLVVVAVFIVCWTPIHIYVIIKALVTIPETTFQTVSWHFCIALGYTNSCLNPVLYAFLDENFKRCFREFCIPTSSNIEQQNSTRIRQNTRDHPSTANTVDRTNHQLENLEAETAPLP
Summary of the method: as §1

Human Melanocortin (MC4) = biological target: T10, Human Melanocortin (MC4) (Homo sapiens, UniProt P32245); assay: Radioligand binding, human melanocortin MC4 membranes, FlashPlate, [125I]-NDP-αMSH; details: compound at 10 μM; human melanocortin MC4 membranes
T10 construct: purchased Perkin Elmer Biosignal
T10 sequence (P32245 whole entry): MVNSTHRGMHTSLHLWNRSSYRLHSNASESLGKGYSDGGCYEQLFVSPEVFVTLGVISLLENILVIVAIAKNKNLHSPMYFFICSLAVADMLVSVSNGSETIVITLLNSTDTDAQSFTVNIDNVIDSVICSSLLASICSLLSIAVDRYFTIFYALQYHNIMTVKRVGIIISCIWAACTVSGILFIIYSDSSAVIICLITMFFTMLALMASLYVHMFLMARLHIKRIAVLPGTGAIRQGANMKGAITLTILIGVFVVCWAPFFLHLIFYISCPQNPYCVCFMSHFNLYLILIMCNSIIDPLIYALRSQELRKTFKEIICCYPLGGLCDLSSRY
Summary of the method: as §1

Mouse urotensin (mUR2) = biological target: T11, Mouse urotensin (mUR2) (Mus musculus, UniProt Q8VIH9); assay: Radioligand binding, mouse urotensin mUR2 membranes, FlashPlate, [125I]-Urotensin II; details: compound at 10 μM; mouse urotensin mUR2 membranes
T11 construct: purchased Perkin Elmer Biosignal
T11 sequence (Q8VIH9 1-385): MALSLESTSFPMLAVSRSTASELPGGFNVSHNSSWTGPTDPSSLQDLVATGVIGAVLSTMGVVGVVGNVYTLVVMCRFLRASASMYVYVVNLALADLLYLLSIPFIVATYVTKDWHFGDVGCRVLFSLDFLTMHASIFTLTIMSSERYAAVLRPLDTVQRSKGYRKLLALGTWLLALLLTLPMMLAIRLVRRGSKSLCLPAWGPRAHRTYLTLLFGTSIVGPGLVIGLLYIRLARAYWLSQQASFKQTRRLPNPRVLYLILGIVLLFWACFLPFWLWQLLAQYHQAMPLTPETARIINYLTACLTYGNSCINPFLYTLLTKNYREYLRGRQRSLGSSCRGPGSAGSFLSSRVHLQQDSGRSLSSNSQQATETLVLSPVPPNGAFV
Summary of the method: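 Cloned mouse urotensin (mUR2) receptor membranes from Perkin Elmer Biosignal were immobilized in FlashPlate microplates using a proprietary coating. Each well got 19.5 μl buffer, then 0.5 μl of DMSO, reference ligand, or compound. Adding 5 μl of [125I]-Urotensin II, diluted to 5× final concentration in binding buffer, started binding. Plates were sealed with TopSeal-A and incubated 1 hour at room temperature in the dark. Wells were counted for 30 seconds each on a TopCount after a 60-second delay, and percentage inhibition was calculated.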

Compound | A9 radioligand binding inhibition [1] | A3 radioligand binding inhibition (Human Melanocortin (MC3)) | A2 radioligand binding inhibition (Human κ-Opioid (KOP)) | A1 radioligand binding inhibition (Human δ-opioid (DOP)) | A6 radioligand binding inhibition [2] | A5 radioligand binding inhibition (Human melanocortin (MC5)) | A8 radioligand binding inhibition (Human neurokinin (NK1)) | A10 radioligand binding inhibition (Human opioid (ORL1)) | A7 radioligand binding inhibition (Human μ-opioid (MOP)) | A4 radioligand binding inhibition (Human Melanocortin (MC4)) | A11 radioligand binding inhibition (Mouse urotensin (mUR2))
COC[C@H]1OC(OCc2ccc3ccccc3c2)[C@H](NC(=O)CCCNC(=N)N)[C@@H](OCc2ccccc2)[C@@H]1O (stereo partly drawn) [compound 21] | − (“−” indicates less than 50% inhibition at 10 μM) | − (“−” indicates less than 50% inhibition at 10 μM) | − (“−” indicates less than 50% inhibition at 10 μM) | − (“−” indicates less than 50% inhibition at 10 μM) | − (“−” indicates less than 50% inhibition at 10 μM) | − (“−” indicates less than 50% inhibition at 10 μM) | + (“+” indicates greater than 50% inhibition at 10 μM) | − (“−” indicates less than 50% inhibition at 10 μM) | − (“−” indicates less than 50% inhibition at 10 μM) | − (“−” indicates less than 50% inhibition at 10 μM) | − (“−” indicates less than 50% inhibition at 10 μM)
COC[C@H]1OC(OCc2ccc3ccccc3c2)[C@H](NC(=O)CNC(=N)N)[C@@H](OCc2ccc(Cl)cc2)[C@@H]1O (stereo partly drawn) [compound 22] | − (“−” indicates less than 50% inhibition at 10 μM) | − (“−” indicates less than 50% inhibition at 10 μM) | − (“−” indicates less than 50% inhibition at 10 μM) | − (“−” indicates less than 50% inhibition at 10 μM) | − (“−” indicates less than 50% inhibition at 10 μM) | + (“+” indicates greater than 50% inhibition at 10 μM) | − (“−” indicates less than 50% inhibition at 10 μM) | − (“−” indicates less than 50% inhibition at 10 μM) | − (“−” indicates less than 50% inhibition at 10 μM) | − (“−” indicates less than 50% inhibition at 10 μM) | − (“−” indicates less than 50% inhibition at 10 μM)
COC[C@H]1OC(OCc2ccccc2)[C@H](NC(=O)CNC(=N)N)[C@@H](OCc2ccc(-c3ccccc3)cc2)[C@@H]1O (stereo partly drawn) [compound 23] | − (“−” indicates less than 50% inhibition at 10 μM) | − (“−” indicates less than 50% inhibition at 10 μM) | − (“−” indicates less than 50% inhibition at 10 μM) | − (“−” indicates less than 50% inhibition at 10 μM) | + (“+” indicates greater than 50% inhibition at 10 μM) | + (“+” indicates greater than 50% inhibition at 10 μM) | + (“+” indicates greater than 50% inhibition at 10 μM) | − (“−” indicates less than 50% inhibition at 10 μM) | − (“−” indicates less than 50% inhibition at 10 μM) | − (“−” indicates less than 50% inhibition at 10 μM) | − (“−” indicates less than 50% inhibition at 10 μM)
COC[C@H]1OC(OCc2ccccc2)[C@H](NC(=O)CCNC(=N)N)[C@@H](OCc2ccc(-c3ccccc3)cc2)[C@@H]1O (stereo partly drawn) [compound 24] | − (“−” indicates less than 50% inhibition at 10 μM) | − (“−” indicates less than 50% inhibition at 10 μM) | − (“−” indicates less than 50% inhibition at 10 μM) | − (“−” indicates less than 50% inhibition at 10 μM) | + (“+” indicates greater than 50% inhibition at 10 μM) | + (“+” indicates greater than 50% inhibition at 10 μM) | + (“+” indicates greater than 50% inhibition at 10 μM) | − (“−” indicates less than 50% inhibition at 10 μM) | − (“−” indicates less than 50% inhibition at 10 μM) | − (“−” indicates less than 50% inhibition at 10 μM) | − (“−” indicates less than 50% inhibition at 10 μM)
COC[C@H]1OC(OCc2ccccc2)[C@H](NC(=O)CCCNC(=N)N)[C@@H](OCc2ccc(-c3ccccc3)cc2)[C@@H]1O (stereo partly drawn) [compound 25] | − (“−” indicates less than 50% inhibition at 10 μM) | − (“−” indicates less than 50% inhibition at 10 μM) | − (“−” indicates less than 50% inhibition at 10 μM) | − (“−” indicates less than 50% inhibition at 10 μM) | + (“+” indicates greater than 50% inhibition at 10 μM) | + (“+” indicates greater than 50% inhibition at 10 μM) | + (“+” indicates greater than 50% inhibition at 10 μM) | − (“−” indicates less than 50% inhibition at 10 μM) | − (“−” indicates less than 50% inhibition at 10 μM) | + (“+” indicates greater than 50% inhibition at 10 μM) | − (“−” indicates less than 50% inhibition at 10 μM)
COC[C@H]1OC(OCc2ccccc2)[C@H](NC(=O)CCCN)[C@@H](OCc2ccc3ccccc3c2)[C@@H]1O (stereo partly drawn) [compound 26] | − (“−” indicates less than 50% inhibition at 10 μM) | − (“−” indicates less than 50% inhibition at 10 μM) | − (“−” indicates less than 50% inhibition at 10 μM) | − (“−” indicates less than 50% inhibition at 10 μM) | − (“−” indicates less than 50% inhibition at 10 μM) | − (“−” indicates less than 50% inhibition at 10 μM) | + (“+” indicates greater than 50% inhibition at 10 μM) | − (“−” indicates less than 50% inhibition at 10 μM) | − (“−” indicates less than 50% inhibition at 10 μM) | − (“−” indicates less than 50% inhibition at 10 μM) | − (“−” indicates less than 50% inhibition at 10 μM)
